Laboratory results taken from US20260184700A1, “PDK1 REGULATORY COMPOUND AND COMPOSITION CONTAINING THE SAME” (PROVIBIO CO., LTD., priority 2024, published 2026).

Tested on: T cells isolated from mouse spleen
Experiment: T cell proliferation inhibition, CFSE flow cytometry, CD3/CD28 activation
Assay type: cell-based
Conditions: CD3/CD28 activated, 3 days; for inhibition at 0.01 µM / inhibition at 0.1 µM / inhibition at 1 µM / inhibition at 10 µM / inhibition at 30 µM / inhibition at 50 µM: Mus musculus, T-cell, 72 h, read-out: Proliferation inhibition rate (%)
Method: To verify the T cell proliferation inhibitory effect of the compounds according to the present invention, the following experiment was performed based on flow cytometry analysis using carboxyfluorescein diacetate succinimidyl ester (CFSE), a fluorescent dye that binds to intracellular molecules via covalent bonds.
Spleens were extracted from 7-week-old C57BL/6 mice, ground, and then separated into single cells using a strainer (40 μm pore size, SPL). Red blood cells were removed using ACK (Ammonium-Chloride-Potassium) lysis buffer to isolate white blood cells.
Finally, using a MACS Magnetic Stand and LS column, T cells were isolated from the spleen.
The T cells isolated from the spleen were resuspended in 1 mL of free medium (RPMI-1640+200 U/mL penicillin+200 μg/mL streptomycin), and 0.3 μL of CFSE (10 mM) was added. The mixture was incubated at 37° C. for 5 minutes.
Free medium (10 mL) was added to stop the reaction, and the cells were centrifuged to obtain the cell pellet.
RPMI 1640 medium containing 10% FBS, 100 U/mL penicillin, 100 μg/mL streptomycin, and resuspended the cells. The cells were then seeded into a 96-well plate at a density of 2×10^5 cells per well and activated with CD3 and CD28 antibodies (0.5 μg/mL each) to activate T cells.
The compound diluted in DMSO was added at concentrations of 10 nM, 100 nM, 1 μM, 10 μM, 30 μM, and 50 μM, with three wells per concentration, and cultured at 37° C. and 5% CO2 for three days. The cells were then analyzed using a FACS Canto instrument.
The proliferation inhibition rate (%) was calculated using the following formula: […]

| SMILES | Proliferation inhibition rate (%) (compound 100 nM) | Proliferation inhibition rate (%) (compound 1 μM) | Proliferation inhibition rate (%) (compound 10 μM) | Proliferation inhibition rate (%) (compound 30 μM) | Proliferation inhibition rate (%) (compound 50 μM) | further results |
| --- | --- | --- | --- | --- | --- | --- |
| Nc1ncccc1C(=O)NCCCCCCCCCCCCN1CCC2CCCCC2C1 (centres unmarked) [Compound 16, 2-Amino-N-(12-(octahydroisoquinolin-2 (1H)-yl)dodecyl)nicotinamide] | – | – | – | – | – | inhibition at 0.01 µM (compound 10 nM): 4.13%; inhibition at 0.1 µM (compound 100 nM): -2.93%; inhibition at 1 µM (compound 1 μM): 100%; inhibition at 10 µM (compound 10 μM): 100%; inhibition at 30 µM (compound 30 μM): 100%; inhibition at 50 µM (compound 50 μM): 100% |
| Nc1ncccc1C(=O)NCCCCCCCCCCCCN1CCc2ccccc2C1 [Compound 17, 2-Amino-N-(12-(3,4-dihydroisoquinolin-2(1H)-yl)dodecyl) nicotinamide] | – | – | – | – | – | Proliferation inhibition rate (%) (compound 10 nM, listed as PBK-2024-004, 0.01 µM): 0.00%; Proliferation inhibition rate (%) (compound 100 nM, listed as PBK-2024-004, 0.1 µM): −14.00%; Proliferation inhibition rate (%) (compound 1 μM, listed as PBK-2024-004, 1 µM): 100.00%; Proliferation inhibition rate (%) (compound 10 μM, listed as PBK-2024-004, 10 µM): 100.00% |
| CC1(C)CCN(CCCCCCCCCCCCNC(=O)c2cccnc2N)C1 [Compound 22, 2-Amino-N-(12-(3,3-dimethylpyrrolidin-1-yl)dodecyl) nicotinamide] | 100.00 | 100.00 | 100.00 | 100.00 | 100.00 | Proliferation inhibition rate (%) (compound 10 nM): −0.80% |
| COC1CCN(CCCCCCCCCCCCNC(=O)c2cccnc2N)C1 (centres unmarked) [Compound 32, 2-Amino-N-(12-(3-methoxypyrrolidin-1-yl)dodecyl) nicotinamide] | – | – | – | – | – | Proliferation inhibition rate (%) (compound 10 nM, listed as PBK-2024-024, 0.01 µM): 0.29% |
| CN(CCCCCCCCCCCCNC(=O)c1cccnc1N)C1CCCCC1 [Compound 34, 2-Amino-N-(12-(cyclohexyl(methyl)amino)dodecyl) nicotinamide] | 100.00 | 100.00 | 100.00 | 100.00 | 100.00 | – |
| CC1CN(CCCCCCCCCCCCNC(=O)c2cccnc2N)C(C)CN1.Cl (centres unmarked) [Compound 36, 2-Amino-N-(12-(2,5-dimethylpiperazin-1-yl)dodecyl) nicotinamide hydrochloride] | 100.00 | 100.00 | 100.00 | 100.00 | 100.00 | – |
| C[C@H]1CNCCN1CCCCCCCCCCCCNC(=O)c1cccnc1N.Cl [Compound 37, (S)-2-Amino-N-(12-(2-methylpiperazin-1-yl)dodecyl) nicotinamide hydrochloride] | – | 100.00 | 100.00 | 100.00 | 100.00 | – |
| CC1CCCN(CCCCCCCCCCCCNC(=O)c2cccnc2N)CC1 (centres unmarked) [Compound 39, 2-Amino-N-(12-(4-methylazepan-1-yl)dodecyl) nicotinamide] | 100.00 | 100.00 | 100.00 | 100.00 | 100.00 | – |
| CC1CN(C)C(CCCCCCCCCCCCNc2ccc3cncnc3n2)N1 (centres unmarked) [Compound 43] | 100.00 | 100.00 | 100.00 | 100.00 | 100.00 | – |
| Nc1ncccc1C(=O)NCCCCCCCCCCCCN1CCC(O)CC1 [Compound 48, 2-Amino-N-(12-(4-hydroxypiperidin-1-yl)dodecyl) nicotinamide] | 100.00 | 100.00 | 100.00 | 100.00 | 100.00 | – |
| CN(CCCCCCCCCCCCNC(=O)c1cccnc1N)C(C)(C)C [Compound 53, 2-Amino-N-(12-(tert-butyl(methyl)amino)dodecyl) nicotinamide] | 100.00 | 100.00 | 100.00 | 100.00 | 100.00 | – |
| Nc1ncccc1C(=O)NCCCCCCCCCCCCN1CCN(CCO)CC1 [Compound 54, 2-Amino-N-(12-(4-(2-hydroxyethyl)piperazin-1-yl)dodecyl) nicotinamide] | 100.00 | 100.00 | 100.00 | 100.00 | 100.00 | – |
| Cl.O=C(NCCCCCCCCCCCCN1CCNCC1)c1ccc(-c2ccccc2)o1 [Compound 90, 5-Phenyl-N-(12-(piperazin-1-yl)dodecyl) furan-2-carboxamide Hydrochloride] | – | – | 100.00 | 100.00 | 100.00 | – |
| COC1CCN(CCCCCCCCCCCCNC(=O)c2cccnc2N)CC1 [Compound 94, 2-amino-N-(12-(4-methoxypiperidin-1-yl)dodecyl) nicotinamide] | 100.00 | 100.00 | 100.00 | 100.00 | 100.00 | – |
| Nc1ncccc1C(=O)NCCCCCCCCCCCCN1CCN(C=O)CC1 [Compound 97, 2-amino-N-(12-(4-formylpiperazin-1-yl)dodecyl) nicotinamide] | – | 100.00 | 100.00 | 100.00 | 100.00 | – |
| CC(C)(C)OC(=O)NC1CCN(CCCCCCCCCCCCNC(=O)c2cccnc2N)CC1 [Compound 101, tert-Butyl (1-(12-(2-aminonicotinamido)dodecyl)piperidin-4-yl)carbamate] | – | – | – | – | – | inhibition at 0.01 µM (compound 10 nM): -0.15%; inhibition at 0.1 µM (compound 100 nM): 100%; inhibition at 1 µM (compound 1 μM): 100%; inhibition at 10 µM (compound 10 μM): 100%; inhibition at 30 µM (compound 30 μM): 100%; inhibition at 50 µM (compound 50 μM): 100% |
| CC(C)N1CCN(CCCCCCCCCCCCNC(=O)c2cccnc2N)CC1 [Compound 104, 2-Amino-N-(12-(4-isopropylpiperazin-1-yl)dodecyl) nicotinamide] | 100.00 | 100.00 | 100.00 | 100.00 | 100.00 | Proliferation inhibition rate (%) (compound 10 nM): 100.00% |
| CC(C)(C)OC(=O)N1CCN(CCCCCCCCCCCCNC(=O)c2cccnc2N)CC1 [Compound 111, tert-butyl-4-(12-(2-aminonicotinamido)dodecyl) piperazine-1-carboxylate] | 100.00 | 100.00 | 100.00 | 100.00 | 100.00 | Proliferation inhibition rate (%) (compound 10 nM): 0.00% |
| CN1CCN(CCCCCCCCCCCCNC(=O)c2cccnc2F)CC1 [Compound 121, 2-fluoro-N-(12-(4-methylpiperazin-1-yl)dodecyl) nicotinamide] | 0.00 | 0.00 | 30.00 | 100.00 | 100.00 | Proliferation inhibition rate (%) (compound 10 nM): 0.00% |
| Nc1ncccc1C(=O)NCCCCCCCCCCCCN1CC(F)(F)C1 [Compound 122, 2-Amino-N-(12-(3,3-difluoroazetidin-1-yl)dodecyl) nicotinamide] | 0.00 | 80.00 | 100.00 | 100.00 | 100.00 | Proliferation inhibition rate (%) (compound 10 nM): 0.00% |
| COC1CCN(CCCCCCCCCCCCNC(=O)c2cccnc2N)C1 (centres unmarked) [Compound 126, 2-amino-N-(12-(3-methoxypyrrolidin-1-yl)dodecyl) nicotinamide] | 100.00 | 100.00 | 100.00 | 100.00 | 100.00 | Proliferation inhibition rate (%) (compound 10 nM, listed as K-PB-48, 0.01 µM): 0.00% |
